{"source": "patent US20110098219A1", "about": "“System for Curing Hepatic Cancer with Leptin” (KAOHSIUNG MEDICAL UNIVERSITY, priority 2009, published 2011)", "key": {"[1]": {"tested_on": "liver cancer patients", "test": "Survival of liver cancer patients treated with MPA after surgery", "format": "in vivo, human", "settings": "P value 0.008", "description": "In ‘in vitro’ studies and clinical experiments, leptin and MPA are found to have obvious effect on suppressing liver cancer cells and improving patient's survival rate. Thus, the therapeutic drug is formed by combining MAP with leptin to cure liver cancer patients, where the physiological concentration of leptin in a normal human body is almost able to enhance the treatment effect of MPA. MPA is used for treatment in the present invention, where, for obtaining a better effect, leptin is directly combined with MPA or leptin is obtained by increasing the physiological concentration of leptin in the patient at first.\nConsequently, the leptin expression can be taken as an index for effectiveness of the hormone therapy (i.e. MPA) after the surgery; and, the survival time of the liver cancer patients can be maintained or even prolonged."}, "[2]": {"molecular_target": "T1, leptin receptor and progesterone receptor (Homo sapiens, UniProt P06401)", "T1 construct": "endogenous in cells", "T1 sequence (P06401 1-933)": "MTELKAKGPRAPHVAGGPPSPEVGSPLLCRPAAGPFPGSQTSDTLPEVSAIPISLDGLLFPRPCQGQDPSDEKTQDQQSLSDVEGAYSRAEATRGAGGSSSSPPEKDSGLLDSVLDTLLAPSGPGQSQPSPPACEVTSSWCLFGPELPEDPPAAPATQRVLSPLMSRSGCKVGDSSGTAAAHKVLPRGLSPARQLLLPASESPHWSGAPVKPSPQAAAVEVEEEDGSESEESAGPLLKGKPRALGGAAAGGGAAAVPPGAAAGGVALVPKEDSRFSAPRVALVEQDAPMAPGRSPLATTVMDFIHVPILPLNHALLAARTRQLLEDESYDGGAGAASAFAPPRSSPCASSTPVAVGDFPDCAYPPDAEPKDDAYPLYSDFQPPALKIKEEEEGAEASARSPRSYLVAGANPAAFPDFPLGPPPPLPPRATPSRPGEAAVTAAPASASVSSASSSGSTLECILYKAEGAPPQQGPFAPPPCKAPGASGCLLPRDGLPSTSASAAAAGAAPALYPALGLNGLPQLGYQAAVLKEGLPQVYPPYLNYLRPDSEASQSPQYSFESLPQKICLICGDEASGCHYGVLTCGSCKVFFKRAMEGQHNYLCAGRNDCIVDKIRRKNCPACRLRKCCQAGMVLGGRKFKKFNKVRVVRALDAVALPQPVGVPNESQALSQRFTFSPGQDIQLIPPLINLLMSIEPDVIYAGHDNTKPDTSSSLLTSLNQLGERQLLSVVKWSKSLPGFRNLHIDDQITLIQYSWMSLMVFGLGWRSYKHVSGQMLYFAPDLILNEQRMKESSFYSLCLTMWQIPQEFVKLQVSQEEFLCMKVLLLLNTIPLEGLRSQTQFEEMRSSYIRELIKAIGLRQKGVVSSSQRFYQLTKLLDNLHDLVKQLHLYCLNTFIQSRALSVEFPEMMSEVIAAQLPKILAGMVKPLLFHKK", "T1 sequence (P48357 22-1165 partner)": "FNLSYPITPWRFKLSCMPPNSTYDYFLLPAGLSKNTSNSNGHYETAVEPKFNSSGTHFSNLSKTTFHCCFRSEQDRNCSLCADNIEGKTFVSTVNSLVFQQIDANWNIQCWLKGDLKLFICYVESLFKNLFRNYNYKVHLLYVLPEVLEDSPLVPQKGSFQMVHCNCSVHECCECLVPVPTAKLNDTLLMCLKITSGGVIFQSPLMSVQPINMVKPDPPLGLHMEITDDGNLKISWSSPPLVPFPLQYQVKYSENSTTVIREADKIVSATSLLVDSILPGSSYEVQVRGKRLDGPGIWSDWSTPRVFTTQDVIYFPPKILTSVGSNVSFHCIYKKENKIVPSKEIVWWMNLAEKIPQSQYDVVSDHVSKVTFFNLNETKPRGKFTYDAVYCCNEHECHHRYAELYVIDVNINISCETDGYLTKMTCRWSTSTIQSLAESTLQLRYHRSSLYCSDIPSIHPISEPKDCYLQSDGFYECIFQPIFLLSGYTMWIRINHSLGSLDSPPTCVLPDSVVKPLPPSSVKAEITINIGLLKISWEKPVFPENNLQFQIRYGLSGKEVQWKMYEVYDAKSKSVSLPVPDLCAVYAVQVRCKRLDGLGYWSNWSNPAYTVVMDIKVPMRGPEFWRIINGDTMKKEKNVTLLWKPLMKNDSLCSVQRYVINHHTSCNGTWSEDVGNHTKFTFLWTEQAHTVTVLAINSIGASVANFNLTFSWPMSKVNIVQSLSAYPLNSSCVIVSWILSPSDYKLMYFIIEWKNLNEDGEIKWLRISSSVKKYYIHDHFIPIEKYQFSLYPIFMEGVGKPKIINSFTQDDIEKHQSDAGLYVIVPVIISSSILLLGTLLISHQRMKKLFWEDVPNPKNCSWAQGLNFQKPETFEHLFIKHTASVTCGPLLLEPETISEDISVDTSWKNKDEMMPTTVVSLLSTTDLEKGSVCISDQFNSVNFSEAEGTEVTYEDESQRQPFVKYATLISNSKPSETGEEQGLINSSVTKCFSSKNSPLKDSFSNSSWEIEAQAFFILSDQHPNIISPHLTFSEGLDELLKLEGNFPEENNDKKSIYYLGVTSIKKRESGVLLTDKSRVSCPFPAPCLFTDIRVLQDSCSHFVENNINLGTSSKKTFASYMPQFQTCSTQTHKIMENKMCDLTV", "test": "Immunoprecipitation and immunofluorescent staining, receptor interaction", "format": "cell-based", "method": "Please refer to FIG. 8A and FIG. 8B, which are views showing interaction between a leptin receptor and a progesterone receptor through immunoprecipitation and immunofluorescent staining. As shown in the figures, for acknowledging interaction between a leptin receptor and a progesterone receptor, cellular proteins are processed through immunoprecipitation and western blotting with anti-pgR after liver cancer cells are applied with leptin only, MPA only and MPA+leptin for 30 minutes separately. […] The same results are shown through immunofluorescent staining. After the cells are processed for 10 minutes, the progesterone receptor is dyed with FITC; the leptin receptor is dyed with Texas-Red; and cell membrane is dyed with phalloidin, which are observed with fluoresce microscope under 40×. […] Thus, it is confirmed that the leptin receptor and the progesterone receptor interact to work on the liver cancer cells."}, "[3]": {"tested_on": "liver cancer patients", "settings": "prior researches, FIG. 19B; P value 0.171; cited from earlier work"}, "[4]": {"tested_on": "STAT- and MAPK-related signal paths", "test": "Protein expression of STAT- and MAPK-related signal paths in normal liver cell line", "format": "cell-based", "method": "Please refer to FIG. 17A to FIG. 18B, which are views showing epithelial cell line of normal liver treated with MPA+leptin for 24 hours and 48 hours respectively; and views showing STAT3- and MAPK-related signal paths after treating cell line of normal liver with MPA+leptin. As shown in the figures, after epithelial cell line of normal liver (THLE-3) is applied with MPA+leptin for […], MPA+leptin's effect on cell growth (i.e. survival rate) is analyzed through XTT assay. […] Besides, in FIG. 18A and FIG. 18B, protein expressions for STAT- and MAPK-related signal paths are analyzed."}}}
{"molecule": "CC(=O)O[C@]1(C(C)=O)CC[C@H]2[C@@H]3C[C@H](C)C4=CC(=O)CC[C@]4(C)[C@H]3CC[C@@]21C", "note": "[MPA, medroxyprogesterone acetate]", "values": [{"measurement": "survival time, patients with higher versus lower leptin expression", "setting": "[1]", "value": "longer survival time"}, {"measurement": "merged level between leptin receptor and progesterone receptor", "setting": "[2]; 10 minutes, immunofluorescent staining", "value": "some of the leptin receptor are merged with some of the progesterone receptor"}, {"measurement": "interaction of leptin receptor and progesterone receptor", "setting": "[2]; 30 minutes, immunoprecipitation and western blotting with anti-pgR", "value": "interacted"}, {"measurement": "association of patient's survival rate with MPA treatment after surgery", "setting": "[3]", "value": "did not find significant association"}, {"measurement": "effect on STAT- and MAPK-related signal proteins", "setting": "[4]", "value": "no obvious effect"}]}
